Reference: patent publication US4798807A, “Monoclonal antibodies and method for detecting dioxins and dibenzofurans” (priority 1986, dated 1989)

Experiments:
[1] = target: monoclonal antibody DD-6; test: Competition ELISA with monoclonal antibody DD-6; format: binding, Biozzi mice; conditions: competitor vs monoclonal antibody DD-6; plate coated with A-triCDD-RSA
Description: (§1) In this case the hybridomas were then screened for their ability to distinguish A-triCDD-BSA and A-triCDD-RSA from BSA and RSA. On the basis of this initial screen about 25 stable, antibody-producing colonies were isolated, subcloned, and frozen. The remaining clones were again screened for their abilities to recognize free TCDD in suspension. Experimentally, on the order of 10-100 nanograms of TCDD in hexane was dried, 0.5 ml of saline with BSA (1 mg/ml) was added and sonificated for 2 hrs. […] Identical procedures were followed for other dioxin isomers. A dilution series in microtiter plate wells was then made with the suspended TCDD, antibody adde, and the competition ELISA completed. Competition ELISA test procedures are discussed in detail in the following reference: Butt, W. R. (1984) "Practical Immunoassay: The State of the Art", Marcel Dekker, Inc., N.Y., N.Y.
(§2) A large part of the success that we have had in characterizing the binding specificities of our monoclonal antibodies comes from having developed a reliable competition ELISA protocol. Our preferred assay starts from stock solutions at 10 ppm in hexane of the various compounds listed in Table I. 10 μl of hexane solution is aliquoted into a small vial, evaporated under a stream of nitrogen gas, and 500 μl of a 1 mg/ml solution of BSA in phosphate buffered saline with 0.1% BSA is added. The vial is capped and placed in an ultrasonic cleaning waterbath for two hours. Two hours of sonification gives a more reproducible assay than does an hour. During the sonification, the hexane appears to evaporate completely, and one is left with an aqueous solution containing the dioxin. Microtiter plates coated with A-triCDD-RSA are blocked with a three percent solution of ovalbumin and a two-fold dilution series of sonificated dioxin-BSA is then made, covering the range 100 ppb-0.1 ppb. In each well of the plate 100 μl of the sonificated dioxin-BSA solution is mixed with n equal volume of antibody. The antibody partitions between the dioxin adsorbed to the BSA, and the A-tri-CDD-RSA on the plate.
(§3) A-TriCDD-RSA was adsorbed onto the surface of the wells of a microtiter plate. The various competitors listed were suspended in saline containing bovine serum albumin (BSA). These solutions were made by sonificating 10 μl of dioxin solution in hexane with 500 μl of saline-BSA. A dilution series of these dioxin-BSA solutions was then made covering the range of 100-0.2 ppb, and placed in the microtiter plate wells. An equal volume of DD-1 monoclonal antibody was then added, and allowed to react for 1 hour. Tne antibody binds either to the A-TriCDD-RSA on the plate or the dioxin in solution. After the hour, the solution phase is removed, the plate washed, and it is reincubated for an hour with peroxidase-conjugated goat-anti-mouse-immunoglobulins. A second washing is then done, and substrate (ABTS) added to the peroxidase. The enzyme-antibody conjugate and substrate function as a "developer", allowing the visualization of the DD-1 bound to the A-triCDD-RSA on the plate. Results are then expressed as a fraction of the response in wells with no competitor. […] At about 20 ppb of 2,3,7,8-TCDD the relative ELISA response is half of control, meaning that half the DD-1 antibody bound to the solution phase dioxin and half bound to the A-triCDD-RSA on the plate. For 1,2,3,7(8)-TCDD, 50% inhibition occurs at about 4 ppb, indicating the DD-1 prefers 1,2,3,7(8)-TCDD to 2,3,7,8-TCDD.
(§4) The FIGURE and Table II show representative competition data using several chlorinated compounds as competitors. From such data, one can determine the concentration required to inhibit antibody binding by 50% (I50). Table II lists the I50 for all compounds tested with the antibodies. In reporting these values, factors of two are about the limit of significance. […] The binding specificities of these antibodies are highly desirable, since they prefer the most toxic of the dioxin and dibenzofuran isomers.

[2] = target: monoclonal antibody DD-3; test: Competition ELISA with monoclonal antibody DD-3; format: binding, BALB/c mice; conditions: competitor vs monoclonal antibody DD-3; plate coated with A-triCDD-RSA
Description: as §1, §2, §3, §4

[3] = target: monoclonal antibody DD-5; test: Competition ELISA with monoclonal antibody DD-5; format: binding, Biozzi mice; conditions: competitor vs monoclonal antibody DD-5; plate coated with A-triCDD-RSA
Description: as §1, §2, §3, §4

[4] = test system: monoclonal antibody DD-4; test: Competition ELISA with monoclonal antibody DD-4; format: binding, BALB/c mice; conditions: for I50 (inhibits antibody binding by 50%): competitor vs monoclonal antibody DD-4, plate coated with A-triCDD-RSA
Description: as §1, §2, §3, §4

[5] = target: monoclonal antibody DD-1; test: Competition ELISA with monoclonal antibody DD-1; format: binding, Biozzi mice; conditions: for I50 (inhibits antibody binding by 50%): competitor vs monoclonal antibody DD-1, plate coated with A-triCDD-RSA
Description: as §1, §2, §3, §4

Row | Molecule | I50 (inhibits antibody binding by 50%) [1] | I50 (inhibits antibody binding by 50%) [2] | I50 (inhibits antibody binding by 50%) [3] | reactivity of DD-4 with competitor ([4]; DD-4) | I50 (inhibits antibody binding by 50%) [4] | I50 (inhibits antibody binding by 50%) [5] | concentration at which 50% inhibition occurs (relative ELISA response half of control) ([5]; FIGURE, DD-1, competitor in saline-BSA, dilution series 100-0.2 ppb)
1 | 1,2,3,6(7),7(8),8(9)-hexa-CD[ | > 200 ng | > 200 ng | > 10 ng | some reactivity | > 200 ng | > 200 ng | 
2 | 1,2,3,7,(8)-TCDD | 0.15 ng | 0.45 ng | 0.3 ng |  | 0.3 ng | 0.15 ng | about 4 ppb
3 | Clc1ccc2c(c1)Oc1c(Cl)c(Cl)c(Cl)c(Cl)c1O2 [1,2,3,4,7-penta-CDD] | > 2 ng | > 2 ng |  |  | > 2 ng | > 2 ng | 
4 | Clc1cc2c(cc1Cl)Oc1c(cc(Cl)c(Cl)c1Cl)O2 [1,2,3,7,8-penta-CDD] | > 0.004 ng | 0.15 ng |  |  | 0.02 ng | 0.2 ng | 
5 | Clc1cc(Cl)c2c(c1Cl)Oc1ccccc1O2 [1,2,4-Tri-CDD] | > 200 ng | > 200 ng | > 10 ng |  | > 200 ng | > 200 ng | 
6 | Nc1c(Cl)ccc2c1Oc1cc(Cl)c(Cl)cc1O2 [1-amino-2,7,8-TriCDD] | 0.02 ng | > 0.04 ng | > 0.02 ng |  | > 0.01 ng | 0.2 ng | 
7 | O=[N+]([O-])c1c(Cl)ccc2c1Oc1cc(Cl)c(Cl)cc1O2 [1-nitro-2,7,8-TriCDD] | > 0.004 ng | 0.15 ng |  |  | 0.02 ng | 0 ng | 
8 | Clc1cc(-c2cc(Cl)c(Cl)c(Cl)c2Cl)c(Cl)c(Cl)c1Cl [2,2',3,3',4,4',5,5'-Octa-CBP] | > 200 ng | > 200 ng | > 10 ng |  | > 200 ng | > 200 ng | 
9 | Clc1ccc(-c2c(Cl)cc(Cl)c(Cl)c2Cl)c(Cl)c1Cl [2,2',3,3',4,4',6-Hepta-CBP] | > 200 ng | > 200 ng | > 10 ng |  | > 200 ng | > 200 ng | 
10 | Clc1ccc(Cl)c(-c2c(Cl)c(Cl)c(Cl)c(Cl)c2Cl)c1Cl [2,2',3,3',4,5,6,6'-Octa-CBP] | > 200 ng | > 200 ng | > 10 ng |  | > 200 ng | > 200 ng | 
11 | Clc1ccc(-c2cc(Cl)c(Cl)c(Cl)c2Cl)c(Cl)c1 [2,2',3,4,4',5-Hexa-CBP] | > 200 ng | > 200 ng | > 10 ng |  | > 200 ng | > 200 ng | 
12 | Clc1ccc(Cl)c(-c2c(Cl)c(Cl)c(Cl)c(Cl)c2Cl)c1 [2,2',3,4,5,5',6-Hepta-CBP] | > 200 ng | > 200 ng | > 10 ng |  | > 200 ng | > 200 ng | 
13 | Clc1ccccc1-c1cc(Cl)c(Cl)c(Cl)c1Cl [2,2',3,4,5-Penta-CBP] | > 200 ng | > 200 ng | > 10 ng |  | > 200 ng | > 200 ng | 
14 | Clc1cc(Cl)c(-c2ccccc2Cl)c(Cl)c1 [2,2',4,6-TCBP] | > 200 ng | > 200 ng | > 10 ng |  | > 200 ng | > 200 ng | 
15 | OCC(Cl)(Cl)Cl [2,2,2-Tricholoroethanol, 2,2,2-Tricholoro-ethanol] | > 2000 ng | > 2000 ng | > 2000 ng |  | > 2000 ng | > 2000 ng | 
16 | Brc1cc2c(cc1Br)Oc1cc(Br)c(Br)cc1O2 [2,3,7,8-tetra-Bromo-DD] | > 2 ng | 1 ng |  |  | 1 ng | 0.05 ng | 
17 | O=C(O)COc1cc(Cl)c(Cl)cc1Cl [2,4,5-Trichlorophenoxyacet, 2,4,5-Trichloro-phenoxyacet] | 2700 ng | > 2000 ng | > 2000 ng |  | > 2000 ng | 2000 ng | 
18 | Oc1cc(Cl)c(Cl)cc1Cl [2,4,5-Trichlorophonol] | > 2000 ng | > 2000 ng | > 2000 ng |  | > 2000 ng | 800 ng | 
19 | O=[N+]([O-])c1cc(Cl)cc(Cl)c1O [2,4-Dichloro-6-nitrophenol, 2,4-Dichloro-6-nitro-phenol] | > 2000 ng | > 2000 ng | > 2000 ng |  | > 2000 ng | > 2000 ng | 
20 | Oc1ccc(Cl)cc1Cl [2,4-Dichlorophenol] | > 2000 ng | > 2000 ng | > 2000 ng |  | > 2000 ng | 2000 ng | 
21 | O=C(O)COc1ccc(Cl)cc1Cl [2,4-Dichlorophenoxyacetic, 2,4-Dichlorophenoxy-acetic] |  | > 2000 ng |  |  | > 2000 ng | > 2000 ng | 
22 | O=[N+]([O-])c1cc(Cl)ccc1Cl [2,5-Dichloronitrobenzene, 2,5-Dichloronitro-benzene] | 700 ng | 2000 ng | 2000 ng |  | > 2000 ng | 90 ng | 
23 | Toxaphene | > 2000 ng | > 2000 ng | > 2000 ng |  | > 2000 ng |  | 
